Measured values as given in the NIST ThermoML archive (doi:10.1021/je2007764).

Assay: xn = mol fraction of the nth substance listed
Conditions: Fluid (supercritical or subcritical phases), Buoyancy - hydrostatic balance with magnetic suspension - one sinker

[C-]#[O+] [carbon monoxide] + N#N
Conditions	mass density [kg/m3]
250.04 K, 996.97 kPa, x1 = 0.04999	13.537
250.04 K, 1999 kPa, x1 = 0.04999	27.34
250.04 K, 4009.9 kPa, x1 = 0.04999	55.503
250.04 K, 6016.9 kPa, x1 = 0.04999	84.044
250.04 K, 16000 kPa, x1 = 0.04999	220.89
250.05 K, 969.13 kPa, x1 = 0.1002	13.157
250.05 K, 999.78 kPa, x1 = 0.1002	13.577
250.05 K, 2004.3 kPa, x1 = 0.1002	27.416
250.05 K, 3998.8 kPa, x1 = 0.1002	55.373
250.05 K, 7998.5 kPa, x1 = 0.04999	112.326
250.05 K, 8999 kPa, x1 = 0.1002	126.622
250.05 K, 9999.8 kPa, x1 = 0.04999	140.653
250.05 K, 11001 kPa, x1 = 0.1002	154.742
250.05 K, 11998 kPa, x1 = 0.04999	168.354
250.05 K, 13033 kPa, x1 = 0.1002	182.506
250.05 K, 14004 kPa, x1 = 0.04999	195.251
250.05 K, 15003 kPa, x1 = 0.1002	208.407
250.05 K, 17999 kPa, x1 = 0.04999	245.259
250.05 K, 18474 kPa, x1 = 0.04999	250.84
250.06 K, 3032.9 kPa, x1 = 0.1002	41.76
250.06 K, 5043.2 kPa, x1 = 0.1002	70.198
250.06 K, 5999.3 kPa, x1 = 0.1002	83.836
250.06 K, 6999.1 kPa, x1 = 0.1002	98.128
250.06 K, 7998.3 kPa, x1 = 0.1002	112.391
250.06 K, 9998.8 kPa, x1 = 0.1002	140.734
250.06 K, 11998 kPa, x1 = 0.1002	168.471
250.06 K, 13998 kPa, x1 = 0.1002	195.325
250.06 K, 15999 kPa, x1 = 0.1002	221.035
250.06 K, 16706 kPa, x1 = 0.1002	229.835
250.06 K, 18000 kPa, x1 = 0.1002	245.432
250.06 K, 19962 kPa, x1 = 0.1002	268.002
275.01 K, 997.91 kPa, x1 = 0.1002	12.276
275.01 K, 1984.4 kPa, x1 = 0.1002	24.502
275.01 K, 3998.5 kPa, x1 = 0.1002	49.641
275.01 K, 5998.9 kPa, x1 = 0.1002	74.708
275.01 K, 7999.4 kPa, x1 = 0.1002	99.667
275.02 K, 990.79 kPa, x1 = 0.04999	12.187
275.02 K, 1996 kPa, x1 = 0.04999	24.643
275.02 K, 4000.1 kPa, x1 = 0.04999	49.643
275.02 K, 9999.5 kPa, x1 = 0.1002	124.305
275.02 K, 11999 kPa, x1 = 0.04999	148.339
275.02 K, 12004 kPa, x1 = 0.1002	148.483
275.02 K, 13997 kPa, x1 = 0.04999	171.74
275.02 K, 14001 kPa, x1 = 0.1002	171.88
275.02 K, 15997 kPa, x1 = 0.04999	194.336
275.02 K, 15998 kPa, x1 = 0.1002	194.459
275.02 K, 17997 kPa, x1 = 0.1002	216.135
275.02 K, 18198 kPa, x1 = 0.04999	218.123
275.02 K, 19888 kPa, x1 = 0.1002	235.72
275.02 K, 19917 kPa, x1 = 0.04999	235.882
275.03 K, 6038.6 kPa, x1 = 0.04999	75.17
275.03 K, 8036.6 kPa, x1 = 0.04999	100.073
275.03 K, 10062 kPa, x1 = 0.04999	124.995
299.96 K, 1003.8 kPa, x1 = 0.04999	11.294
299.96 K, 2981.9 kPa, x1 = 0.04999	33.609
299.96 K, 4997.9 kPa, x1 = 0.04999	56.34
299.96 K, 6998.3 kPa, x1 = 0.04999	78.744
299.96 K, 9086.5 kPa, x1 = 0.04999	101.826
299.96 K, 11000 kPa, x1 = 0.04999	122.587
299.96 K, 12998 kPa, x1 = 0.04999	143.747
299.96 K, 14954 kPa, x1 = 0.04999	163.889
299.97 K, 986.71 kPa, x1 = 0.04999	11.101
299.97 K, 992.98 kPa, x1 = 0.1002	11.173
299.97 K, 1001.9 kPa, x1 = 0.1002	11.274
299.97 K, 1989.8 kPa, x1 = 0.1002	22.417
299.97 K, 1993.4 kPa, x1 = 0.04999	22.457
299.97 K, 2993.6 kPa, x1 = 0.1002	33.744
299.97 K, 3975 kPa, x1 = 0.04999	44.812
299.97 K, 3998.4 kPa, x1 = 0.1002	45.092
299.97 K, 5020.8 kPa, x1 = 0.1002	56.608
299.97 K, 5999.2 kPa, x1 = 0.1002	67.6
299.97 K, 6020.2 kPa, x1 = 0.04999	67.811
299.97 K, 7034 kPa, x1 = 0.1002	79.163
299.97 K, 8024.8 kPa, x1 = 0.04999	90.132
299.97 K, 9073.7 kPa, x1 = 0.1002	101.718
299.97 K, 9997.1 kPa, x1 = 0.1002	111.8
299.97 K, 10017 kPa, x1 = 0.04999	111.971
299.97 K, 11008 kPa, x1 = 0.1002	122.717
299.97 K, 11999 kPa, x1 = 0.1002	133.29
299.97 K, 13003 kPa, x1 = 0.1002	143.858
299.97 K, 13997 kPa, x1 = 0.1002	154.176
299.97 K, 14807 kPa, x1 = 0.1002	162.461
299.97 K, 15370 kPa, x1 = 0.1002	168.159
299.98 K, 7997.5 kPa, x1 = 0.1002	89.866
299.98 K, 11889 kPa, x1 = 0.04999	132.063
299.98 K, 13997 kPa, x1 = 0.04999	154.113
299.98 K, 15997 kPa, x1 = 0.04999	174.35
299.98 K, 16109 kPa, x1 = 0.1002	175.535
299.98 K, 17997 kPa, x1 = 0.04999	193.879
299.98 K, 17999 kPa, x1 = 0.1002	193.977
299.98 K, 19830 kPa, x1 = 0.1002	211.228
299.98 K, 19957 kPa, x1 = 0.04999	212.314
324.97 K, 13743 kPa, x1 = 0.04999	137.825
324.98 K, 996.21 kPa, x1 = 0.04999	10.328
324.98 K, 997.48 kPa, x1 = 0.1002	10.342
324.98 K, 1970.2 kPa, x1 = 0.1002	20.421
324.98 K, 1981.3 kPa, x1 = 0.04999	20.531
324.98 K, 2991.3 kPa, x1 = 0.04999	30.967
324.98 K, 3998.5 kPa, x1 = 0.1002	41.357
324.98 K, 4008.5 kPa, x1 = 0.04999	41.449
324.98 K, 4980 kPa, x1 = 0.04999	51.417
324.98 K, 5960.8 kPa, x1 = 0.04999	61.428
324.98 K, 6000 kPa, x1 = 0.1002	61.847
324.98 K, 7025.8 kPa, x1 = 0.04999	72.228
324.98 K, 7991 kPa, x1 = 0.04999	81.935
324.98 K, 7999.4 kPa, x1 = 0.1002	82.05
324.98 K, 8998.7 kPa, x1 = 0.04999	91.988
